According to PMC10030653, “ClpC2 protects mycobacteria against a natural antibiotic targeting ClpC1-dependent protein degradation” (Communications Biology, 2023):
Numbered stars: 1 amine (or outer) side, 2 acyl side, 3 side chain; on linkers, the order of the positions; unused ones are H or OH. Square brackets hold non-standard residues; d marks the D form. Peptide text beside a SMILES is read from it. X1 = CC(C)([C@@H]1CO1)n1cc([C@@H](O)[C@H](N[*:1])C(=O)[*:2])c2ccccc21; Ala(3R-Me,3-isobutenyl) = CC(C)=C[C@@H](C)[C@H](N)C(=O)O; NMeLeu(5-OH,4R) = CN[C@@H](C[C@@H](C)CO)C(=O)O; Phe(βR-OMe) = CO[C@H](c1ccccc1)[C@H](N)C(=O)O; NMeL = CN[C@@H](CC(C)C)C(=O)O

What was measured:
[1] = target: Mtb ClpC1 NTD (ClpC1^1-145) (Mycobacterium tuberculosis, UniProt P9WPC9); test: biochemical; type: binding
Sequence of Mtb ClpC1 NTD (ClpC1^1-145) (P9WPC9 1-145): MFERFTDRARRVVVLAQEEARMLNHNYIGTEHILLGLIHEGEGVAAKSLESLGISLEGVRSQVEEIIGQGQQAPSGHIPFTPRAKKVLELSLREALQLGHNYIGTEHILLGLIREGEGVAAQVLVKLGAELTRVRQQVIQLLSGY

[2] = tested on: ClpC2; type: cell-based, Mycobacterium smegmatis; details: Msm WT, OD600 0.5, 150 nM CymA, 37 °C, from 1 h to 8 h after addition
[3] = tested on: ClpC2; type: cell-based, Mycobacterium smegmatis; details: Msm, 150 nM CymA, around 8 h after addition
[4] = tested on: ClpC1 hexamer/ClpP1P2 tetradecamer (ClpC1P); test: FITC-casein degradation assay; type: biochemical, Mycobacterium tuberculosis; details: 2 μM CymA
Procedure: Degradation of FITC-casein (Sigma) was carried out in 50 mM HEPES-KOH pH 7.1, 150 mM KCl, 20 mM MgCl2, 10% glycerol by 0.5 μM ClpC1 hexamer and 0.8 μM ClpP1P2 tetradecamer with the addition of 0.4 mM activator peptide benzyloxycarbonyl-L-leucyl-L-leucinal (PeptaNova), 0.5 mM DTT, 1 U/ml creatine phosphokinase, 20 mM phosphocreatine, 10 mM ATP at 37 °C. […] Whereas the effect of an excess of ClpC2 on the degradation of FITC-casein (10 μM) was carried out in the presence of 100 μM ClpC2. Fluorescence intensity increases upon degradation of FITC-casein as a consequence of fluorophore dequenching was monitored using the BioTek Synergy 2 Plate Reader with a 485/20 nm band-pass […] filter. Rates of degradation were determined from the initial slopes and used to determine the CymA-induced stimulation of ClpC1P activity at the different concentrations of ClpC2.

[5] = tested on: clpC2 mRNA; test: RT-qPCR of clpC2 expression after CymA; type: cell-based, Mycobacterium smegmatis; details: Msm, 150 nM CymA; for Cq value ClpC2 / Cq value RpoB (reference gene): 1 h
[6] = tested on: ClpC2 / clpC2 operator DNA; test: EMSA, ClpC2 binding to clpC2 operator DNA; set-up: species or system Mycobacterium tuberculosis; details: for fraction of DNA bound to ClpC2: 1 μM CymA
[7] = tested on: ClpC1; details: Msm, 150 nM CymA, 0-8 h
[8] = tested on: mycobacteria; details: cited from earlier work
[9] = tested on: Escherichia coli; details: cited from earlier work
Excerpt: (§1) CymA is a cyclic heptapeptide that is synthesised by the marine bacterium Streptomyces sp. CNB-982[33]–[35].

[10] = tested on: Staphylococcus aureus; details: cited from earlier work
Excerpt: as §1

[11] = tested on: ClpC1 NTD; details: cited from earlier work
[12] = tested on: ClpC1; details: cited from earlier work
[13] = tested on: Mycobacterium smegmatis; test: Growth curves of Msm strains with CymA
Procedure: Mycobacterium smegmatis MC^2155 SMR5 and derived strains were routinely grown at 37 °C with shaking in DIFCO™ Middlebrook7H9 broth (BD) supplemented with 0.05% Tween 80 and 0.2% glycerol. The antibiotics apramycin (50 µg/ml) or hygromycin B (100 µg/ml) were added as needed. […] The DMSO concentration of cultures was maintained at less than 1% in all instances.
Msm cultures were diluted to an OD600 of 0.005 in 7H9. […] The cultures were grown at 37 °C with shaking (200 rpm) and the culture growth monitored by periodically measuring the OD600.

CO[C@H](c1ccccc1)[C@@H]1NC(=O)[C@H](C)NC(=O)[C@H](C[C@@H](C)CO)N(C)C(=O)[C@H]([C@H](O)c2cn(C(C)(C)[C@@H]3CO3)c3ccccc23)NC(=O)[C@H]([C@H](C)C=C(C)C)NC(=O)[C@H](CC(C)C)N(C)C(=O)[C@H](C(C)C)NC1=O [CymA, cyclomarin A] (cyclo(A[Phe(βR-OMe)]V[NMeL][Ala(3R-Me,3-isobutenyl)][X1][NMeLeu(5-OH,4R)]))
Kd [1]: 2.3 nM
ClpC2 Western blot signal [2]: increases by several orders of magnitude
ClpC2 level in excess of ClpC1 [3]: 84 fold
FITC-casein degradation rate ([4]; 0 μM ClpC2, 37 °C, replicate 1): 8.073 min⁻¹
FITC-casein degradation rate ([4]; 0 μM ClpC2, 37 °C, replicate 2): 7.688 min⁻¹
FITC-casein degradation rate ([4]; 0 μM ClpC2, 37 °C, replicate 3): 7.795 min⁻¹
FITC-casein degradation rate ([4]; 0.2 μM ClpC2, 37 °C, replicate 1): 7.586 min⁻¹
FITC-casein degradation rate ([4]; 0.2 μM ClpC2, 37 °C, replicate 2): 7.529 min⁻¹
FITC-casein degradation rate ([4]; 0.2 μM ClpC2, 37 °C, replicate 3): 6.77 min⁻¹
FITC-casein degradation rate ([4]; 0.5 μM ClpC2, 37 °C, replicate 1): 6.271 min⁻¹
FITC-casein degradation rate ([4]; 0.5 μM ClpC2, 37 °C, replicate 2): 6.851 min⁻¹
FITC-casein degradation rate ([4]; 0.5 μM ClpC2, 37 °C, replicate 3): 6.213 min⁻¹
FITC-casein degradation rate ([4]; 1 μM ClpC2, 37 °C, replicate 1): 6.248 min⁻¹
FITC-casein degradation rate ([4]; 1 μM ClpC2, 37 °C, replicate 2): 6.426 min⁻¹
FITC-casein degradation rate ([4]; 1 μM ClpC2, 37 °C, replicate 3): 5.933 min⁻¹
FITC-casein degradation rate ([4]; 2 μM ClpC2, 37 °C, replicate 1): 4.9721 min⁻¹
FITC-casein degradation rate ([4]; 2 μM ClpC2, 37 °C, replicate 2): 4.555 min⁻¹
FITC-casein degradation rate ([4]; 2 μM ClpC2, 37 °C, replicate 3): 5.043 min⁻¹
FITC-casein degradation rate ([4]; 4 μM ClpC2, 37 °C, replicate 1): 4.194 min⁻¹
FITC-casein degradation rate ([4]; 4 μM ClpC2, 37 °C, replicate 2): 4.045 min⁻¹
FITC-casein degradation rate ([4]; 4 μM ClpC2, 37 °C, replicate 3): 3.662 min⁻¹
FITC-casein degradation rate ([4]; 8 μM ClpC2, 37 °C, replicate 1): 3.41 min⁻¹
FITC-casein degradation rate ([4]; 8 μM ClpC2, 37 °C, replicate 2): 3.29 min⁻¹
FITC-casein degradation rate ([4]; 8 μM ClpC2, 37 °C, replicate 3): 3.596 min⁻¹
FITC-casein degradation rate ([4]; 12 μM ClpC2, 37 °C, replicate 1): 3.454 min⁻¹
FITC-casein degradation rate ([4]; 12 μM ClpC2, 37 °C, replicate 2): 2.89 min⁻¹
FITC-casein degradation rate ([4]; 12 μM ClpC2, 37 °C, replicate 3): 2.828 min⁻¹
FITC-casein degradation rate ([4]; 18 μM ClpC2, 37 °C, replicate 1): 3.091 min⁻¹
FITC-casein degradation rate ([4]; 18 μM ClpC2, 37 °C, replicate 2): 2.23 min⁻¹
FITC-casein degradation rate ([4]; 18 μM ClpC2, 37 °C, replicate 3): 2.386 min⁻¹
Cq value ClpC2 ([5]; replicate 1): 21.9726
Cq value RpoB (reference gene) ([5]; replicate 1): 23.9629
Cq value ClpC2 ([5]; replicate 2): 21.7648
Cq value RpoB (reference gene) ([5]; replicate 2): 24.1812
Cq value ClpC2 ([5]; replicate 3): 20.9483
Cq value RpoB (reference gene) ([5]; replicate 3): 23.5984
increase in clpC2 mRNA ([5]; one hour, normalised to rpoB, biological n = 3, P = 0.0015 (two-tailed unpaired t test)): 263 fold
fraction of DNA bound to ClpC2 ([6]; 1 nM ClpC2, replicate 1): 0
fraction of DNA bound to ClpC2 ([6]; 1 nM ClpC2, replicate 2): 0.02788
fraction of DNA bound to ClpC2 ([6]; 1 nM ClpC2, replicate 3): 0.04348
fraction of DNA bound to ClpC2 ([6]; 2 nM ClpC2, replicate 1): 0
fraction of DNA bound to ClpC2 ([6]; 2 nM ClpC2, replicate 2): 0.03704
fraction of DNA bound to ClpC2 ([6]; 2 nM ClpC2, replicate 3): 0.05455
fraction of DNA bound to ClpC2 ([6]; 5 nM ClpC2, replicate 1): 0.09091
fraction of DNA bound to ClpC2 ([6]; 5 nM ClpC2, replicate 2): 0.08
fraction of DNA bound to ClpC2 ([6]; 5 nM ClpC2, replicate 3): 0.06873
fraction of DNA bound to ClpC2 ([6]; 10 nM ClpC2, replicate 1): 0.1629
fraction of DNA bound to ClpC2 ([6]; 10 nM ClpC2, replicate 2): 0.1615
fraction of DNA bound to ClpC2 ([6]; 10 nM ClpC2, replicate 3): 0.1694
fraction of DNA bound to ClpC2 ([6]; 15 nM ClpC2, replicate 1): 0.2974
fraction of DNA bound to ClpC2 ([6]; 15 nM ClpC2, replicate 2): 0.2686
fraction of DNA bound to ClpC2 ([6]; 15 nM ClpC2, replicate 3): 0.2612
fraction of DNA bound to ClpC2 ([6]; 25 nM ClpC2, replicate 1): 0.5671
fraction of DNA bound to ClpC2 ([6]; 25 nM ClpC2, replicate 2): 0.4781
fraction of DNA bound to ClpC2 ([6]; 25 nM ClpC2, replicate 3): 0.3902
fraction of DNA bound to ClpC2 ([6]; 50 nM ClpC2, replicate 1): 0.7982
fraction of DNA bound to ClpC2 ([6]; 50 nM ClpC2, replicate 2): 0.7344
fraction of DNA bound to ClpC2 ([6]; 50 nM ClpC2, replicate 3): 0.731
effect of CymA on ClpC2-operator DNA binding ([6]; EMSA, 1 µM CymA, room temperature, 20 min, pH 7.5): noticeable inhibitory effect on the interaction between ClpC2 and its operator site
ClpC1 level after CymA [7]: remained fairly constant
activity against mycobacteria [8]: effective against mycobacteria
activity against Escherichia coli [9]: little activity
activity against Staphylococcus aureus [10]: little activity
target binding domain [11]: specifically target ClpC1 NTD
effect on ClpC1 ATPase and proteolytic activity [12]: enhance the ATPase and proteolytic activity as well as reduce substrate specificity of ClpC1
growth of ΔclpC2 with CymA ([13]; Msm ΔclpC2, sub-MIC50 CymA (150 nM), 7H9, 37 °C, vs parent strain): diminished growth compared to the parent strain
growth of comclpC2 F99A with CymA ([13]; Msm ΔclpC2 complemented with clpC2 F99A, 150 nM CymA, 7H9, 37 °C): attenuated growth upon exposure to CymA
growth of comclpC2 R188A/R192A with CymA ([13]; Msm ΔclpC2 complemented with clpC2 R188A/R192A, in the presence of CymA): lack of growth impairment
growth of comclpC2 WT with CymA ([13]; Msm ΔclpC2 complemented with clpC2 WT, 150 nM CymA, 7H9, 37 °C): the WT phenotype was restored
